Data as given in PubChem BioAssay AID2060890 (Molecular Pharmacology Branch, DTP, NCI, 2025).

System: LG0703-F948-PDC complex spheroid viability
Experiment: Anticancer human tumor LG0703-F948-PDC patient-derived lung adenocarcinoma cell line growth inhibition [RAS]
Conditions: for IC50: curve of first compound; for viability, T/C: stronger effect = lower value
Procedure, shortened: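 Tumour cells grown as complex spheroids with HUVEC endothelial cells and mesenchymal stem cells, treated with RAS pathway inhibitor combinations. Each agent spans half-log steps from near clinical Cmax, or 10 microM where Cmax is unknown.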
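Note: spheroids exposed to agents for 7 days.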
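Throughout, for viability, T/C: 100% = DMSO vehicle wells.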

For `CCC(CC)c1cc(NC2CCC(N)C2)n2nccc2n1` (configuration not stated) + CCn1c(-c2cccnc2C(C)OC)c2c3cc(ccc31)N1CCOC(CC(NC(=O)C(C(C)C)N(C)C(=O)C3(F)CCN(C(=O)C#CC(C)(C)N(C)C)CC3)C(=O)N3CCCC(N3)C(=O)OCC(C)(C)C2)C1, the IC50 (second compound 0.000949 µM) was 0.964 µM, the IC50 (second compound 0.003 µM) was 1.04 µM and the IC50 (second compound 0.00949 µM) was 1.6 µM. The IC50 (second compound 0.03 µM) was 1.09 µM, the IC50 (second compound 0.0949 µM) was 0.36 µM and the IC50 (second compound 0.3 µM) was under 0.0316 µM. For the same compound, the viability, T/C (second compound 0.000949 µM, first compound 0.0316 µM) was 104%, the viability, T/C (second compound 0.000949 µM, first compound 0.1 µM) was 89.9% and the viability, T/C (second compound 0.000949 µM, first compound 0.316 µM) was 79.8%. For the same compound, the viability, T/C (second compound 0.000949 µM, first compound 1 µM) was 54%, the viability, T/C (second compound 0.000949 µM, first compound 3.16 µM) was 5.17% and the viability, T/C (second compound 0.000949 µM, first compound 10 µM) was 0.33%. The viability, T/C (second compound 0.003 µM, first compound 0.0316 µM) was 104%, the viability, T/C (second compound 0.003 µM, first compound 0.1 µM) was 96.8% and the viability, T/C (second compound 0.003 µM, first compound 0.316 µM) was 79.4%. The viability, T/C (second compound 0.003 µM, first compound 1 µM) was 58.2%, the viability, T/C (second compound 0.003 µM, first compound 3.16 µM) was 4.18% and the viability, T/C (second compound 0.003 µM, first compound 10 µM) was 0.26%. For the same compound, the viability, T/C (second compound 0.00949 µM, first compound 0.0316 µM) was 87.5%, the viability, T/C (second compound 0.00949 µM, first compound 0.1 µM) was 79.6% and the viability, T/C (second compound 0.00949 µM, first compound 0.316 µM) was 80.6%. For the same compound, the viability, T/C (second compound 0.00949 µM, first compound 1 µM) was 81.6%, the viability, T/C (second compound 0.00949 µM, first compound 3.16 µM) was 4.34% and the viability, T/C (second compound 0.00949 µM, first compound 10 µM) was 0.8%. The viability, T/C (second compound 0.03 µM, first compound 0.0316 µM) was 100%, the viability, T/C (second compound 0.03 µM, first compound 0.1 µM) was 91.1% and the viability, T/C (second compound 0.03 µM, first compound 0.316 µM) was 77.5%. It also gave a viability, T/C (second compound 0.03 µM, first compound 1 µM) of 58.6%, a viability, T/C (second compound 0.03 µM, first compound 3.16 µM) of 4.55% and a viability, T/C (second compound 0.03 µM, first compound 10 µM) of 0.32%. For the same compound, the viability, T/C (second compound 0.0949 µM, first compound 0.0316 µM) was 85.2%, the viability, T/C (second compound 0.0949 µM, first compound 0.1 µM) was 65.5% and the viability, T/C (second compound 0.0949 µM, first compound 0.316 µM) was 53.1%. For the same compound, the viability, T/C (second compound 0.0949 µM, first compound 1 µM) was 37.2%, the viability, T/C (second compound 0.0949 µM, first compound 3.16 µM) was 3.64% and the viability, T/C (second compound 0.0949 µM, first compound 10 µM) was 0.29%. The viability, T/C (second compound 0.3 µM, first compound 0.0316 µM) was 41.6%, the viability, T/C (second compound 0.3 µM, first compound 0.1 µM) was 41.2% and the viability, T/C (second compound 0.3 µM, first compound 0.316 µM) was 27.3%. It also gave a viability, T/C (second compound 0.3 µM, first compound 1 µM) of 22.4%, a viability, T/C (second compound 0.3 µM, first compound 3.16 µM) of 3.57% and a viability, T/C (second compound 0.3 µM, first compound 10 µM) of 0.69%.
